The source of these data is patent US20200010482A1, “INHIBITORS OF BETA SECRETASE” (Janssen Pharmaceutica NV, priority 2017, published 2020).

For one test, the target named is β-secretase I (BACE1) (Homo sapiens, UniProt P56817). Briefly: Biochemical assay, automated (CyclOps), BACE1. Conditions: automated CyclOps bioassay. As for the experimental part:
(§1) Unless otherwise indicated all biochemicals were purchased from Sigma-Aldrich Chemical Company, Poole, Dorset, U.K. and non-aqueous solvents, of analytical or higher grade, were purchased from ThermoFisher Scientific, Loughborough, U.K. MilliQ water (Elix 5 & MilliQ Gradient; Merck Millipore) was used as the base aqueous solvent to make up the biological buffers. Base assay buffer was prepared by adding a 50 mM solution of citric acid (1.00244; Merck Biosciences) to stirring solution of 50 mM trisodium citrate (1.06448; Merck Biosciences) until a final pH of 5.0 was achieved. […] All assays were routinely carried out in 384-well assay plates (Costar 4514; Corning Life Sciences) and incubated at 37±1° C. for 60 min. prior to reading the endpoint fluorescence intensity. The (7-methoxyl coumarin-4-yl)acetic acid based substrate β-secretase substrate VI (M2465; Bachem) was prepared as a 1 mM stock in 100% DMSO (D/4121/PB08; ThermoFisher). Assay buffer was prepared by adding DMSO to base buffer to a final concentration of 1% (vol./vol.). β-secretase I (18.64 μM; “BACE1”) and β-secretase II (4.65 μM; “BACE2”) were obtained from Janssen Pharmaceutica, Beerse, Belgium and were stored as frozen aliquots (˜20 μl) and thawed as required.
(§2) Typically 12.5 μl of assay buffer was dispensed to rows B to P of the assay plate. To row A was added 18.75 μl of test compound diluted appropriately in assay buffer. A 6.25 μl aliquot of sample was transferred from row A to row B and the sample mixed three times by pipette. The process was repeated down the plate and 6.25 μl of solution discarded at row N post-mix. Rows O and P were designated as the positive and negative controls. To row P was added 6.25 μl base buffer. To rows A to O was added 6.25 μl enzyme (freshly prepared 40 nM BACE1 or 40 nM BACE2) diluted in base buffer. To initiate the assay 6.25 μl of freshly prepared 80 μM substrate, made up by diluting the 1 mM in 100% DMSO solution into HPLC grade water (Optima W6-212; ThermoFisher), was added to all the wells. The assay plate was covered and incubated at 37±1° C. for 60 min. The fluorescence intensity of the wells was read at 360/405 nm (excitation/emission) utilising a nine reads per well protocol (50 ms integration; density of 3, 0.25 mm spacing; SpectraMAX Paradigm plate reader; TUNE cartridge; SoftMax Pro v 6.3 software; Molecular Devices UK Ltd., Wokingham, Berkshire, UK) and outputting the median value of the nine reads as a text file. Data analysis was carried out using Prism software v 6.3 (GraphPad Inc., San Diego, Calif., USA) using the non-linear regression analysis models supplied by the vendor. For IC50 determinations the four parameter logistic variable slope model was used to fit the raw fluorescence intensity data with the ‘bottom’ fixed to the negative control.
(§3) The CyclOps bioassay module consisted of a fraction collection station, a reagent station, liquid handling robotics, plate store and an integrated plate reader (SpectraMAX Paradigm, TUNE cartridge, SoftMax Pro v 6.3; Molecular Devices). The fraction collection station composed of a 384 well collection plate (P-384-240SQ-C; Axygen, Union City, Calif., USA) mounted on a H-portal carriage (Festo AG & Co. KG, Esslingen, Germany), a syringe drive and a two-way six port injection valve fitted with a 200 μl loop (VICI AG International, Schenkon Switzerland). The output of the injection valve was addressable to all the positions of a 384 well collection plate. The reagent station consisted of hydraulically cooled (10-12° C.) aluminium segments; each manufactured to house a SBS microtiter plate footprint. Independent addressable reagent stations were housed within these sections. Where required, custom aluminium housings were used to accommodate standard laboratory plastic ware (e.g. Eppendorf tubes, Falcon tubes, etc.). As and when required the reagent reservoirs were covered and the lids contained holes through which the Teflon-coated probe could access solutions. […]

A further test deals with T1, β-secretase II (BACE2) (Homo sapiens, UniProt Q9Y5Z0).
T1 sequence (Q9Y5Z0 63-518): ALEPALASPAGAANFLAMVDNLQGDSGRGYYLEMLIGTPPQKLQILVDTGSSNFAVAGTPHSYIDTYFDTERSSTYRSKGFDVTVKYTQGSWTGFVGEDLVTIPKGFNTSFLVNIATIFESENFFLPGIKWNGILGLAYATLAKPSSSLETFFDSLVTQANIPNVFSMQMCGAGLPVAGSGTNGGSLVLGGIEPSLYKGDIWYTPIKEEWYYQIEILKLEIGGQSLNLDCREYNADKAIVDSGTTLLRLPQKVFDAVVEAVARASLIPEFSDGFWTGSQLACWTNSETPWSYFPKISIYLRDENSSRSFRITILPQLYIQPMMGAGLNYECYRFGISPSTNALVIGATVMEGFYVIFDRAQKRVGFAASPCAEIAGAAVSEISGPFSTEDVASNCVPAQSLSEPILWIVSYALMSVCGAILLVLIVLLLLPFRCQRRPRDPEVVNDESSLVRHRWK
Briefly: Biochemical assay, automated (CyclOps), BACE2. Conditions: automated CyclOps bioassay. On the procedure: as §1, §2, §3

Molecules are shown by their SMILES.

Chain of β-secretase I (BACE1) (P56817 46-501): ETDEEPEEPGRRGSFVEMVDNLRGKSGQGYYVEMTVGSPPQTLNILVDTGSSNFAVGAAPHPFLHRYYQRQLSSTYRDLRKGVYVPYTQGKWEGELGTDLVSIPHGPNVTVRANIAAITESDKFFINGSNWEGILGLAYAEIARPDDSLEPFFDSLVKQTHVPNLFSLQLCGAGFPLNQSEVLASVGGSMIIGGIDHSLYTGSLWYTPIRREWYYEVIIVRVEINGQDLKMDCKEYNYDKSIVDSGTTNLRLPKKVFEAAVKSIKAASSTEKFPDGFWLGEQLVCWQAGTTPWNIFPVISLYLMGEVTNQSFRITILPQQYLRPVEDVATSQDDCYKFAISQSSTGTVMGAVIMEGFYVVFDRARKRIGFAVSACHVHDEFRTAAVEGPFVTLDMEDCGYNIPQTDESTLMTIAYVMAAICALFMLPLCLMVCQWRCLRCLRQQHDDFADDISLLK

For `COc1ncc(-c2cccc3c2OCCC3)c2c1C[C@]1(c3ccc(F)cc3F)N=C(N)SC[C@@H]1C2` [Compound 128], the “AUTOMATED ASSAY BACE1 pIC50” value on β-secretase I (BACE1) stood at 7.01. Further, the “AUTOMATED ASSAY BACE2 pIC50” value at β-secretase II (BACE2) turned out to be 6.19.
Consider `COc1ncc(-c2coc3ccccc23)c2c1C[C@]1(c3ccc(F)cc3F)N=C(N)SC[C@@H]1C2` [Compound 130], for which the “AUTOMATED ASSAY BACE1 pIC50” value on β-secretase I (BACE1) stood at 7.4. On β-secretase II (BACE2), the “AUTOMATED ASSAY BACE2 pIC50” value is on record as 7.03.
Turning to `COc1ncc(-c2cccc3cnccc23)c2c1C[C@]1(c3ccc(F)cc3F)N=C(N)SC[C@@H]1C2` [Compound 132], the “AUTOMATED ASSAY BACE1 pIC50” value on β-secretase I (BACE1) turned out to be 7.82. Further, on β-secretase II (BACE2), the “AUTOMATED ASSAY BACE2 pIC50” value worked out at 7.16.
In the same order, the values of `COc1ncc(-c2csc3ccccc23)c2c1C[C@]1(c3ccc(F)cc3F)N=C(N)SC[C@@H]1C2` [Compound 133] are 8.6 and 7.67.
With `COc1ncc(-c2ccccc2)c2c1C[C@]1(c3cc(OCc4ccccc4)ccc3F)N=C(N)SC[C@@H]1C2` [Compound 138], the IC50 on β-secretase I (BACE1) (read-out: AUTOMATED ASSAY BACE1 pIC50 (converted)) was 61.7 nM; on β-secretase II (BACE2) (read-out: AUTOMATED ASSAY BACE2 pIC50 (converted)) it was 32.4 nM.
In the case of `COc1ccc(OC)c(-c2cnc(OC)c3c2C[C@H]2CSC(N)=N[C@@]2(c2cc(OCc4ccccc4F)ccc2F)C3)c1` [Compound 139], the “AUTOMATED ASSAY BACE1 pIC50” value at β-secretase I (BACE1) is given as 5.55. Further, the “AUTOMATED ASSAY BACE2 pIC50” value on β-secretase II (BACE2) worked out at 4.97.
For `COc1ncc(-c2ccccc2C)c2c1C[C@]1(c3cc(OCC4CCC4)ccc3F)N=C(N)SC[C@@H]1C2` [Compound 142], the “AUTOMATED ASSAY BACE1 pIC50” value at β-secretase I (BACE1) is given as 8.4. The “AUTOMATED ASSAY BACE2 pIC50” value at β-secretase II (BACE2) was determined as 7.28.
In the same order, the values of `COc1ccc(F)cc1-c1cnc(OC)c2c1C[C@H]1CSC(N)=N[C@@]1(c1cc(OCC3CCOCC3)ccc1F)C2` [Compound 143] are 6.43 and 4.78.
With `COc1ncc(-c2ccccc2C)c2c1C[C@]1(c3cc(OCCc4c(C)noc4C)ccc3F)N=C(N)SC[C@@H]1C2` [Compound 144], on β-secretase I (BACE1), the “AUTOMATED ASSAY BACE1 pIC50” value was 7.42. Besides, the “AUTOMATED ASSAY BACE2 pIC50” value at β-secretase II (BACE2) was found to be 6.43.
In the same order, the values of `COc1cccc(COc2ccc(F)c([C@]34Cc5c(OC)ncc(-c6c(C)noc6C)c5C[C@H]3CSC(N)=N4)c2)c1` [Compound 145] are 6.89 and 5.52.
As for `COc1ncc(-c2c(C)noc2C)c2c1C[C@]1(c3cc(OC4CCOCC4)ccc3F)N=C(N)SC[C@@H]1C2` [Compound 146], the “AUTOMATED ASSAY BACE1 pIC50” value on β-secretase I (BACE1) was determined as 6.74. Moreover, the “AUTOMATED ASSAY BACE2 pIC50” value at β-secretase II (BACE2) turned out to be 6.63.
Consider `COc1ncc(-c2c(C)noc2C)c2c1C[C@]1(c3cc(OCc4cccc(C#N)c4)ccc3F)N=C(N)SC[C@@H]1C2` [Compound 147], for which the “AUTOMATED ASSAY BACE1 pIC50” value on β-secretase I (BACE1) is 7.7. In addition, at β-secretase II (BACE2), the “AUTOMATED ASSAY BACE2 pIC50” value was found to be 6.64.
In the same order, the values of `COc1ncc(-c2c(C)noc2C)c2c1C[C@]1(c3cc(OCCOC4CCCCC4)ccc3F)N=C(N)SC[C@@H]1C2` [Compound 148] are 6 and 5.19.
In the same order, the values of `COc1ncc(-c2c(C)noc2C)c2c1C[C@]1(c3cc(OCCC4CCCCC4)ccc3F)N=C(N)SC[C@@H]1C2` [Compound 149] are 5.09 and 5.17.
Turning to `COc1ncc(-c2c(C)noc2C)c2c1C[C@]1(c3cc(OCCC4CCCC4)ccc3F)N=C(N)SC[C@@H]1C2` [Compound 150], on β-secretase I (BACE1), the “AUTOMATED ASSAY BACE1 pIC50” value is given as 6.12. The “AUTOMATED ASSAY BACE2 pIC50” value on β-secretase II (BACE2) is 5.3.
With `COc1cc(C)c(-c2cnc(OC)c3c2C[C@H]2CSC(N)=N[C@@]2(c2cc(OCC4CCOCC4)ccc2F)C3)cn1` [Compound 152], on β-secretase I (BACE1), the “AUTOMATED ASSAY BACE1 pIC50” value is reported as 7.52. Further, the “AUTOMATED ASSAY BACE2 pIC50” value on β-secretase II (BACE2) turned out to be 5.65.
In the same order, the values of `COc1ncc(-c2c(C)noc2C)c2c1C[C@]1(c3cc(OCc4c(C)noc4C)ccc3F)N=C(N)SC[C@@H]1C2` [Compound 153] are 6.73 and 6.64.
In the same order, the values of `COc1ncc(-c2ccccc2)c2c1C[C@]1(c3cc(OCc4ccc(F)cc4)ccc3F)N=C(N)SC[C@@H]1C2` [Compound 154] are 7.51 and 7.88.
For `COc1ncc(-c2c(C)noc2C)c2c1C[C@]1(c3cc(OCC4CCC4)ccc3F)N=C(N)SC[C@@H]1C2` [Compound 155], the “AUTOMATED ASSAY BACE1 pIC50” value on β-secretase I (BACE1) turned out to be 7.77. Moreover, the “AUTOMATED ASSAY BACE2 pIC50” value at β-secretase II (BACE2) worked out at 6.12.
As to `COc1ncc(-c2ccccc2F)c2c1C[C@]1(c3cc(OCCC#N)ccc3F)N=C(N)SC[C@@H]1C2` [Compound 156], at β-secretase I (BACE1), the “AUTOMATED ASSAY BACE1 pIC50” value was determined as 6.32. Also, the “AUTOMATED ASSAY BACE2 pIC50” value at β-secretase II (BACE2) came out at 6.36.
